Experiments:
[1] = CD thermal denaturation of collagen model peptide triple helices (transition temperature); type: physicochemical; settings: for T m (figure legends and text) / T m of the corresponding CMPs: CD denaturation at 225 nm; for T m (figure legends and text): PBS-buffer, 12 °C h-1 heating rate, * substitution-site altered, ** arginine-free peptides; for T m: triple-helix transition temperature, CD ellipticity at 225 nm, 60 µM peptide in PBS (10 mM Na2HPO4, 10 mM NaH2PO4, 150 mM NaCl, pH 7.0), 4 to 70 °C, heating rate 12 °C h-1, two-state fit, error ±1 °C; for T m of the corresponding CMPs: Table 2, CMP Ac‐(PPG)5‐PRG‐PPG‐[XY]G‐(PPG)3‐NH2, PBS, 12 °C h-1
Protocol: For all prepared model peptides, CD spectra were recorded in phosphate‐buffered saline (after incubation for […] at 4 °C). […] The curves were fitted to assess triple‐helical stability by the transition temperature (T m, ±1 °C error) in a standardized fashion (see Table 1 and the Supporting Information). Selected denaturation curves are depicted in Figure 4.
CD spectra and Thermal Denaturation Experiments
Experimental setup - Vacuum-dried peptides were dissolved in phosphate-buffered saline (10 mM Na2HPO4, 10 mM NaH2PO4,
150 mM NaCl, pH = 7.0) and the solutions (60 µM peptide) were incubated at 4 °C for at least 48 h for trimerization. CD
measurements were performed on a Jasco J-715 spectropolarimeter using a quartz cuvette (Hellma Analytics, 1 mm path length) and
To study thermal transitions the ellipticity at 225 nm was monitored while increasing the temperature from 4 to
70 °C at a rather slow heating rate of 12 °C h-1 which was controlled electronically (Jasco PTC-348 WI Peltier element). According to
the literature this heating rate still corresponds to non-equilibrium conditions, however, the generated data can be used for internal
Data interpretation - For Tm-determination a two-state-model was employed in which three peptide chains combine to a triple helix
assuming a previously reported mathematical model (vide infra).[7][8] Constants were set (c = 0.00006, R = 8.31) and auxiliary
variables (P, U, V, K) were used to describe the temperature dependence of the folded fraction F. Thermal transition curves were
fitted by optimizing the parameters θmin, θmax, ΔH, and Tm using the Generalized Reduced Gradient algorithm implemented in the
solver tool of MS Excel.[9]. An error of ±1.0 °C was estimated for the resulting Tm values by repeating denaturation experiments.

[2] = biological target: T1, HSP47 (Canis lupus familiaris, UniProt A0A8I3N7V2); assay: HSP47 binding by biolayer interferometry (BLI); set-up: species or system canine; settings: Table S7; BLI curve fitting; KD = koff/kon; errors by propagation of uncertainty; read-out: KD (with error)
T1 construct: coding for residues 36LSP…RDEL418; inferred from Ni-NTA purification with imidazole elution; made in house; host or cells: E. coli BL21 (DE3)
T1 sequence (A0A8I3N7V2 36-418): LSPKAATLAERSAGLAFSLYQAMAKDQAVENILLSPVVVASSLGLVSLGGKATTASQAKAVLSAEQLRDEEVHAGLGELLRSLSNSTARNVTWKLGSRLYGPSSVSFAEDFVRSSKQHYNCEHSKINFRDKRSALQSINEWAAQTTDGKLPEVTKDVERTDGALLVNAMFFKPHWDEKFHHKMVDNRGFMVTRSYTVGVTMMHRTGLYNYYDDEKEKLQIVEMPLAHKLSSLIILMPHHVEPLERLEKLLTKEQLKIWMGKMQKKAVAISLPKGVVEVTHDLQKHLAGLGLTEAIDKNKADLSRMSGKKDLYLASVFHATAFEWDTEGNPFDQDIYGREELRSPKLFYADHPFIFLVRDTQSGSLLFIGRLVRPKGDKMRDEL
Description: (1 picture or pasted object on this page, not shown here) […]

Compound	T m (figure legends and text) [1]	T m [1]	other results
Ac‐(PPG)5‐PRG‐PPG‐(EtO)2‐ProM1G‐(PPG)3‐NH2 [Entry 8]	44.5 °C	44.5 °C	–
Ac‐(PPG)5‐PRG‐PPG‐(HO)2‐ProM2G‐(PPG)3‐NH2 [Entry 11]	37.9 °C	37.9 °C	–
Ac‐(PPG)5‐PRG‐PPG‐(MeO)2‐ProM2G‐(PPG)3‐NH2 [Entry 12]	40.2 °C	40.2 °C	–
Ac-PPG-PPG-PPG-PPG-PPG-PPG-PPG-PPG-PPG-PPG-PPG-NH2 [ProPro**]	45.9 °C	–	–
Ac‐(PPG)5‐PRG‐PPG‐ProM1G‐(PPG)3‐NH2 [Entry 3]	–	39.3 °C	–
Ac‐(PPG)5‐PRG‐PPG‐(MeO)2‐ProM1G‐(PPG)3‐NH2 [Entry 7]	43.6 °C	43.6 °C	–
Ac-PPG-PPG-PPG-PPG-PPG-PPG-PPG-[H2ProM2]G-PPG-PPG-PPG-NH2 [H2-ProM2**]	44.4 °C	–	–
COC(=O)[C@@H]1CC(O)CN1C(=O)[C@@H]1CCCN1C(C)=O (stereo partly drawn) [ProHyp]	49.8 °C	–	T m of the corresponding CMPs [1]: 49.8 °C
N=C(N)NCCC[C@H](NC(=O)[C@@H]1CCCN1C(=O)CNC(=O)[C@@H]1CCCN1C(=O)[C@@H]1CCCN1C(=O)CNC(=O)[C@@H]1CCCN1C(=O)[C@@H]1CCCN1C(=O)CNC(=O)[C@@H]1CCCN1C(=O)[C@@H]1CCCN1C(=O)CNC(=O)[C@@H]1CCCN1C(=O)[C@@H]1CCCN1C(=O)CNC(=O)[C@@H]1CCCN1C(=O)[C@@H]1CCCN1C(=O)CCC(=O)NCCOCCOCCNC(=O)CCCC[C@@H]1SC[C@@H]2NC(=O)N[C@@H]21)C(=O)NCC(=O)N1CCC[C@H]1C(=O)N1CCC[C@H]1C(=O)NCC(=O)N1CCC[C@H]1C(=O)N1CCC[C@H]1C(=O)NCC(=O)N1CCC[C@H]1C(=O)N1CCC[C@H]1C(=O)NCC(=O)N1CCC[C@H]1C(=O)N1CCC[C@H]1C(=O)NCC(=O)N1CCC[C@H]1C(=O)N1CCC[C@H]1C(=O)NCC(N)=O [PP]	–	–	Kd [2]: 370.3 ± 1.8 nM
Ac-PPG-PPG-PPG-PPG-PPG-PRG-PPG-OOG-PPG-PPG-PPG-NH2 [HypHyp]	46.9 °C	–	–
Ac‐(PPG)3‐H2‐ProM2G‐PPG‐PRG‐(PPG)5‐NH2 [Entry 15]	–	44.6 °C	–
Ac‐(PPG)5‐PRG‐PPG‐HO‐ProM1G‐(PPG)3‐NH2 [Entry 5]	43.0 °C	43.0 °C	–
Ac-PPG-PPG-PPG-PPG-PPG-PRG-PPG-OPG-PPG-PPG-PPG-NH2 [HypPro]	44.0 °C	–	–
Ac‐(PPG)3‐ProM1G‐PPG‐PRG‐(PPG)5‐NH2 [Entry 14]	–	40.5 °C	–
Ac‐(PPG)5‐PRG‐PPG‐(EtO)2‐ProM2G‐(PPG)3‐NH2 [Entry 13]	38.9 °C	38.9 °C	–
Ac‐(EtO)2‐ProM1‐OMe	44 °C	–	T m of the corresponding CMPs [1]: 44.5 °C
Ac‐(PPG)5‐PRG‐PPG‐ProHypG‐(PPG)3‐NH2 [Entry 2]	–	49.8 °C	–
Ac‐ProM1‐OMe	39.3 °C	–	T m of the corresponding CMPs [1]: 39.3 °C; ΔT m ([1]; in comparison to reference peptide Ac‐(PPG)5‐PRG‐(PPG)5‐NH2): −6 °C
Ac‐(EtO)2‐ProM2‐OMe	–	–	T m of the corresponding CMPs [1]: 38.9 °C; ΔT m ([1]; with regard to the non‐functionalized system (ProM2 series)): −6 °C
